From BindingDB's records for doi:10.1016/j.bmcl.2006.09.026 (Mediquest Therapeutics, 2006)

Biological target: Transcription factor p65 (Human, UniProt Q04206)
Test: Inhibition of NF-kappaB in human HEK293 cells

Chain of Transcription factor p65 (Q04206 whole entry): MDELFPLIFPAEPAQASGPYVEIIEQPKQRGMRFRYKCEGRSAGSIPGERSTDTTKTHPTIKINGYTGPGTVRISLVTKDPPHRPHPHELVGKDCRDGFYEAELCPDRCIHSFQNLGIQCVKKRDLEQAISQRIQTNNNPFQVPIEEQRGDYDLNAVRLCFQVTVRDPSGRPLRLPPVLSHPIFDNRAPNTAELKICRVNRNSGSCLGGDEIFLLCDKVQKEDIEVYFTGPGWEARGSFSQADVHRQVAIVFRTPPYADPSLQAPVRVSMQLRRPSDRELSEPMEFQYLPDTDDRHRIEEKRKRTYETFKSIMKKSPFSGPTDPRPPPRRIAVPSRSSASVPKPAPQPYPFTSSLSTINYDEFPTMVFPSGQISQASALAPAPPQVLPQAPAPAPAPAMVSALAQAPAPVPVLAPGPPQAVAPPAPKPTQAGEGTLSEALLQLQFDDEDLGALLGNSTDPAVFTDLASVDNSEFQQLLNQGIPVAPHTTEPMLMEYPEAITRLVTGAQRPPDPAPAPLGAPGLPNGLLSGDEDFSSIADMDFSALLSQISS

| Structure (SMILES) | IC50 [nM] |
| --- | --- |
| CCCCCCCCCCCCCCCCCCS(=O)(=O)NCCCNCCCCNCCCN [N1-octadecanylsulfonyl-1,14-diamino-5,10-diazabutadecane] | 2100 |
| CCCCCCCCCCS(=O)(=O)NCCCNCCCCNCCCN [N-(3-(4-(3-aminopropylamino)butylamino)propyl)decane-1-sulfonamide] | 310 |
| CCCCCCCCCCCCS(=O)(=O)NCCCNCCCCNCCCN [N-(3-(4-(3-aminopropylamino)butylamino)propyl)dodecane-1-sulfonamide] | 340 |
| CCCCCCCCCCCCCCCCS(=O)(=O)NCCCNCCCCNCCCN [N-(3-(4-(3-aminopropylamino)butylamino)propyl)hexadecane-1-sulfonamide] | 230 |
